“Also recorded” adds a separate entry of the source.
Legend:
[1] = test system: IC9-Luc90-CD828Z CAR T cells; assay: AP1903 abrogation of CAR T-cell activity in MM.1S tumor-bearing mice; type: in vivo, NSG mice; conditions: 2×10^6 IC9-Luc90-CD828Z T cells plus vehicle control
Experimental: First, MM.1S human SLAMF7^+ multiple myeloma cell line tumors were established in immunodeficient mice. In this model, the MM.1S cells formed a solid cutaneous mass. Measurable tumors were allowed to develop over 7 days, and then the mice were treated with a single intravenous infusion of MSGV1-IC9-Luc90-CD828Z-transduced human T cells. NSG mice (NOD.Cg-Prkdc^scid Il2rg^tm1Wjl/SzJ) from The Jackson Laboratory, Bar Harbor, Me., were used. Mice received intradermal injections of 4×10^6 MM.1S cells. The cells were suspended in a 1:1 mixture of MATRIGEL™ gelatinous protein mixture (BD Biosciences) and PBS (Phosphate-buffered saline) for injection. Tumors were allowed to grow for 7 days, and then each mouse received a single intravenous infusion of human T cells that were transduced with one of 3 CARs: IC9-Luc90-CD828Z (suicide gene+anti-SLAMF7 CAR), Luc90-CD828Z (anti-SLAMF7 CAR alone), or a negative-control anti-CD19 CAR Hu19-CD828Z. A 4th group was left untreated. All groups included 5 mice. After CAR T-cell infusion, the tumors were measured with calipers every 3 days. The longest length and the length perpendicular to the longest length and the tumor thickness were multiplied together to obtain the tumor volume in mm^3. When the longest length reached 15 mm, mice were sacrificed. Animal studies were approved by the National Cancer Institute Animal Care and Use Committee.
MM.1S tumors were established in NSG mice as described in Example 9. The mice were treated with 2×10^6 IC9-Luc90-CD828Z T cells. The mice received 5 mg/kg of AP1903 intraeritoneally for either 3 days or 12 days after the CAR T-cell infusion. […] Also levels of IC9-Luc90-CD828Z CART cells in the mice receiving AP1903 were reduced as compared to the mice receiving the vehicle.

SLAMF7-K562 target cells = assay: CFSE proliferation assay; type: cell-based, human; conditions: SLAMF7-K562 versus NGFR-K562 target cells, 4 days (FIGS. 8B, 8C)
Excerpt: Cocultures were set up in 24-well plates. Target cells included in cocultures were either 0.5×10^6 irradiated SLAMF7-K562 cells or 0.5×10^6 irradiated NGFR-K562 cells. The cocultures also included 1×10^6 T cells from cultures that had been transduced with either […]. The T cells were labeled with carboxy fluorescein diacetate succinimidyl ester (CFSE, Invitrogen) as previously described. The medium used in the cocultures was AIM V™ (Invitrogen) plus 5% human AB serum. IL-2 was not added to the medium. Four days after initiation, the live cells in each coculture were counted with trypan blue for dead cell exclusion, and flow cytometry was performed by Protein L staining.

HepG2 = assay: IFN-gamma ELISA, CAR T cells with HepG2 target cells; type: cell-based, human; conditions: Table B-1
Excerpt: (§1) MM.1S is a SLAMF7^+ multiple myeloma cell line that was obtained from American Type Culture Collection (ATCC). A549 is a BCMA-negative lung cancer cell line (ATCC). TC71 is a BCMA-negative sarcoma cell line. CCRF-CEM, 293T, and A549 are SLAMF7-negative cell lines (ATCC). COL0207, HepG2, U251, Panc10.05, and TC71 are […] that were kind gifts from Dr. Steven Rosenberg, National Cancer Institute. SLAMF7-K562 are K562 cells (ATCC) which were transduced with the gene for full-length SLAMF7. SLAMF7-RPMI are RPMI8226 cells (ATCC) which were transduced with the gene for full-length SLAMF7. NGFR-K562 are K562 cells which were transduced with the gene for low-affinity nerve growth factor (Kochenderfer et al., J. Immunother., 32(7): 689-702 (2009)). All of the human samples mentioned were obtained from patients enrolled in IRB-approved clinical trials at the National Cancer Institute.
(§2) One-hundred thousand SLAMF7^+ or SLAMF7-negative target cells were combined with 100,000 CAR-transduced T cells in duplicate wells of a 96 well round bottom plate in 200 µL of AIM V™ medium (Invitrogen) plus 5% human serum. […]
(§3) The T cells columns indicate whether T cells were transduced with Luc90-CD828Z, Luc63-CD828Z, or were untransduced. The % CAR^+ in Table B-1 was determined by staining the T cells with Protein L. Except for the % CAR^+ column, all values are pg/mL of IFN-gamma. […]

293T = assay: IFN-gamma ELISA, CAR T cells with 293T target cells; type: cell-based, human; conditions: Table B-1; SLAMF7-negative cell line
Excerpt: as §1, §2, §3

SLAMF7^+ MM.1S cells = assay: CD107a degranulation assay; type: cell-based, human; conditions: CD4^+ and CD8^+ T cells, cultured with MM.1S versus NGFR-K562, 4 hours
Experimental: For each T cell culture that was tested, two tubes were prepared. One tube contained MM.1S cells, and the other tube contained NGFR-K562 cells. Both tubes contained CAR-transduced T cells, 1 ml of AIM V™ medium (Invitrogen) plus 5% human AB serum, a titrated concentration of an anti-CD107a antibody (eBioscience, clone eBioH4A3, ThermoFisher Scientific), and 1 μL of GOLGISTOP™ (a protein transport inhibitor containing monensin, BD Biosciences). All tubes were incubated at 37° C. for 4 hours and then stained for CD3, CD4, and CD8.

SLAMF7^+ target cells = assay: IFN-gamma ELISA and functional assays; type: cell-based, human
Experimental: One-hundred thousand SLAMF7^+ or SLAMF7-negative target cells were combined with 100,000 CAR-transduced T cells in duplicate wells of a 96 well round bottom plate in 200 µL of AIM V™ medium (Invitrogen) plus 5% human serum. The plates were incubated at 37° C. for 18-20 hours. Following the incubation, ELISAs (enzyme-linked immunosorbent assays) for IFNγ were performed by using standard methods.
CAR-expressing T cells cultured alone produced very low levels of IFNγ. IFNγ production of T cells expressing a CAR with a 4-1BB moiety, Luc90-CD8BBZ, was compared to IFNγ production of T cells expressing Luc90-CD828Z (Table C). […] Low levels of soluble SLAMF7 are found in the serum of some MM patients (see Tai, et al., Blood, 112(4): 1329-1337 (2008)). IFNγ ELISA assays were conducted to determine if adding SLAMF7 to cultures of anti-SLAMF7 CAR T cells plus target cells could block IFNγ release by the CAR T cells (Table D). IFNγ release by the CART cells was used as a measure recognition of the SLAMF7^+ target cells by the CAR T cells. The concentrations of soluble SLAMF7 added to the cultures were similar to those found in the blood of patients. Blocking of SLAMF7^+ target cell recognition by the soluble SLAMF7 was not observed. Also, activation of the anti-SLAMF7 CAR T cells by the soluble SLAMF7 was not observed.

COLO 205 = assay: IFN-gamma ELISA, CAR T cells with COLO 205 target cells; type: cell-based, human; conditions: Table B-1
Excerpt: as §1, §2, §3

| Substance | tumor outcome in mice receiving vehicle instead of AP1903 [1] | proliferation (CFSE dilution) (SLAMF7-K562 target cells) | IFN-gamma, target cells HepG2 (HepG2) [pg/mL] | IFN-gamma, target cells 293T (293T) [pg/mL] | CD107a upregulation (degranulation) (SLAMF7^+ MM.1S cells) | function of T cells expressing the CAR, overall comparison (SLAMF7^+ target cells; ELISA assays and CD107a degranulation experiments, versus huLuc63-CD828Z) | SLAMF7-specific IFNγ release, comparison of CARs (SLAMF7^+ target cells; Luc90-CD828Z versus huLuc63-CD828Z, most experiments) | IFN-gamma, target cells COLO 205 (COLO 205) [pg/mL] |
| --- | --- | --- | --- | --- | --- | --- | --- | --- |
| IC9-Luc90-CD828Z: CAR plus suicide gene construct (SEQ ID NO: 31): IC9 suicide gene 5′ to the CAR, T2A, Luc90-CD828Z | tumor elimination | proliferated specifically in response to SLAMF7^+ target cells; also recorded: proliferated more |  |  |  |  |  |  |
| Luc90-CD828Z: anti-SLAMF7 CAR (SEQ ID NO: 27): murine Luc90 scFv, human CD8a hinge and TM, CD28 and CD3ζ domains; tested as transduced T cells |  | proliferated specifically in response to SLAMF7^+ target cells | 24 | 37 | degranulated | superior | greater | 19 |

Source: patent publication US11951131B2, “Anti-SLAMF7 chimeric antigen receptors” (The United States of America, as represented by the …, priority 2018, dated 2024)
